Where two headings read alike, the source gives them in different places.
How the values were obtained:
HIV-1NL4-3 = experiment: HIV-1 infectivity assay in TZM-bl reporter cell line (LTR-luciferase, 48 h); format: cell-based; conditions: Human immunodeficiency virus 1, TZM-bl
In short: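 Compounds were tested at 1 μM in TZM-bl cells infected with HIV-1NL4-3. Infectivity was read as luciferase signal 48 h after infection and expressed as percent inhibition, normalized between DMSO-treated wild-type infection (0%) and DMSO-treated Nef-defective HIV-1 infection (100% of the Nef-dependent effect).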

TZM-bl cell line = format: cell-based; conditions: human, 1 μM
In short: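 Nef-dependent infectivity in TZM-bl cells: HIV-1NL4-3 infection with 1 μM compound, luciferase read at 48 h, normalized against DMSO wild-type and Nef-defective controls. Compound cytotoxicity in uninfected cells measured by Cell Titer Blue.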

HIV-1 NefNL4-3 = HIV-1 NefNL4-3 (Human immunodeficiency virus type 1 group M subtype B, UniProt P03406, A33V/T15A/T51N/V11I); experiment: Surface plasmon resonance binding to recombinant full-length Nef (NL4-3); conditions: for RU30/RUNef (extent of binding): response units at 30 μM relative to Nef immobilized on the SPR chip; for Nef NL4-3 Binding, SPR 1:1 or 2-site fitting KD1: 1:1 Langmuir fit where the KD2 cell says '1 to 1 fitting', else 2-site fit
[1] = 1.0 μM, TZM-bl reporter cell line, Table 4, read-out: % Infectivity Inhibition
[2] = 48 h, Table 1, TZM-bl cells, 1 μM, 48 h, 100% = Nef-defective HIV-1, read-out: HIV-1 Infectivity % Inhibition Norm. to Δ-Nef @ 1 μM
[3] = KD, M, Table 4, SPR fit 2-step induced fit, KD = koff/kon × koff2/(koff2 + kon2)
[4] = Nef NL4-3 Binding, SPR 2-state fitting KD, Table 1, 2-step induced-fit model
[5] = Table 4, 2-step induced fit, T = 1/koff2
[6] = KD, M, Table 4, SPR fit 1:1 Langmuir, KD = koff/kon
[7] = Table 4, 1:1 Langmuir fit, T = 1/koff
[8] = read-out: Nef NL4-3 Binding, SPR 1:1 or 2-site fitting KD2, Table 1, 2-site fit, second component

| SMILES | inhibition at 1 µM (HIV-1NL4-3; [1]) [%] | inhibition at 1 µM (HIV-1NL4-3; [2]) [%] | % Cell Viability (TZM-bl cell line) [%] | Percent Viability @ 1 μM (TZM-bl cells) (TZM-bl cell line) [%] | Kd (HIV-1 NefNL4-3) [nM] | Kd (HIV-1 NefNL4-3; [3]) [nM] | Kd (HIV-1 NefNL4-3; [4]) [nM] | T, minutes (residence time) (HIV-1 NefNL4-3; [5]) | RU30/RUNef (extent of binding) (HIV-1 NefNL4-3) | Kd (HIV-1 NefNL4-3; [6]) [nM] | T, minutes (residence time) (HIV-1 NefNL4-3; [7]) | Nef NL4-3 Binding, SPR 1:1 or 2-site fitting KD1 (HIV-1 NefNL4-3; Table 1) | Kd (HIV-1 NefNL4-3; [8]) [nM] |
| --- | --- | --- | --- | --- | --- | --- | --- | --- | --- | --- | --- | --- | --- |
| CC(C)(O)C(=O)N1CCC(CCc2c(-c3cccc(S(C)(=O)=O)c3)nn(-c3nc4ccccc4[nH]3)c2O)CC1 [Compound I-776, 1-(4-{2-[1-(1H-1,3-benzodiazol-2-yl)-5-hydroxy-3-(3-methanesulfonylphenyl)-1H-pyrazol-4-yl]ethyl}piperidin-1-yl)-2-hydroxy-2-methylpropan-1-one] | 19.3 | 19.3 | 97.1 | 97.1 | 393 | 1200 | 1200 | 1.06E + 01 minutes | 5.14E- 03 | – | – | – | – |
| CC(C)(O)C(=O)N1CCC(Cc2nn(-c3nc4ccccc4[nH]3)c(O)c2CCc2ccc(F)cc2)CC1 [Compound I-777, 1-(4-{[1-(1H-1,3-benzodiazol-2-yl)-4-[2-(4-fluorophenyl)ethyl]-5-hydroxy-1H-pyrazol-3-yl]methyl}piperidin-1-yl)-2-hydroxy-2-methylpropan-1-one] | 0 | -3.6 | 97.0 | 97.0 | 997 | – | – | – | 2.23E- 03 | 997 | 3.50E + 00 minutes | – | – |
| CC(=O)N1CCCC(Cc2c(C3CC3)nn(-c3nc4ccccc4[nH]3)c2O)C1 (centres unmarked) [Compound I-780, 1-(3-{[1-(1H-1,3-benzodiazol-2-yl)-3-cyclopropyl-5-hydroxy-1H-pyrazol-4-yl]methyl}piperidin-1-yl)ethan-1-one] | 0 | – | 99 | – | – | – | – | – | 4.47E- 03 | 4070 | 8.13E + 00 minutes | – | – |
| CN(C)C(=O)N1CCCC(Cc2c(C3CC3)nn(-c3nc4ccccc4[nH]3)c2O)C1 (centres unmarked) [Compound I-782, 3-{[1-(1H-1,3-benzodiazol-2-yl)-3-cyclopropyl-5-hydroxy-1H-pyrazol-4-yl]methyl}-N,N-dimethylpiperidine-1-carboxamide] | 61.1 | – | 98.8 | – | – | – | – | – | 5.13E- 03 | 9410 | 3.62E + 00 minutes | – | – |
| C[C@@](O)(C(=O)N1CCC(CCc2c(C3CC3)nn(-c3nc4ccccc4[nH]3)c2O)CC1)C(F)(F)F [Compound I-783, (2R)-1-(4-{2-[1-(1H-1,3-benzodiazol-2-yl)-3-cyclopropyl-5-hydroxy-1H-pyrazol-4-yl]ethyl}piperidin-1-yl)-3,3,3-trifluoro-2-hydroxy-2-methylpropan-1-one] | 5.4 | – | 100 | – | – | – | – | – | 1.38E- 03 | 3370 | 4.08E + 00 minutes | – | – |
| Oc1c(CCc2ccc(F)cc2)c(C2CCN(Cc3ccccn3)CC2)nn1-c1nc2ccccc2[nH]1 [Compound I-802, 1-(1H-1,3-benzodiazol-2-yl)-4-[2-(4-fluorophenyl)ethyl]-3-{1-[(pyridin-2-yl)methyl]piperidin-4-yl}-1H-pyrazol-5-ol] | 4.4 | 4.4 | 99.3 | 99.3 | 447 | 182 | 182 | 2.21E + 01 minutes | 2.48E- 03 | – | – | – | – |
| Oc1c(CCc2ccc(F)cc2)c(C2CCN(Cc3cccnc3)CC2)nn1-c1nc2ccccc2[nH]1 [Compound I-803, 1-(1H-1,3-benzodiazol-2-yl)-4-[2-(4-fluorophenyl)ethyl]-3-{1-[(pyridin-3-yl)methyl]piperidin-4-yl}-1H-pyrazol-5-ol] | 3.2 | 3.2 | 100 | 100.4 | 817 | – | – | – | 1.69E- 03 | 817 | 1.59E + 01 minutes | – | – |
| Oc1c(CCc2ccc(F)cc2)c(C2CCN(Cc3ccncc3)CC2)nn1-c1nc2ccccc2[nH]1 [Compound I-804, 1-(1H-1,3-benzodiazol-2-yl)-4-[2-(4-fluorophenyl)ethyl]-3-{1-[(pyridin-4-yl)methyl]piperidin-4-yl}-1H-pyrazol-5-ol] | – | 50 | – | 97.5 | 90.8 | – | – | – | – | – | – | – | – |
| Oc1c(CCc2ccc(F)cc2)c(C2CCN(CC3CCOCC3)CC2)nn1-c1nc2ccccc2[nH]1 [Compound I-806, 1-(1H-1,3-benzodiazol-2-yl)-4-[2-(4-fluorophenyl)ethyl]-3-{1-[(oxan-4-yl)methyl]piperidin-4-yl}-1H-pyrazol-5-ol] | 20.6 | 20.6 | 99.1 | 99.1 | 9900 | – | – | – | 7.48E- 04 | 9900 | 1.79E + 00 minutes | – | – |
| Oc1c(CCc2ccc(F)cc2)c(CC2CCN(Cc3ccccn3)CC2)nn1-c1nc2ccccc2[nH]1 [Compound I-807, 1-(1H-1,3-benzodiazol-2-yl)-4-[2-(4-fluorophenyl)ethyl]-3-({1-[(pyridin-2-yl)methyl]piperidin-4-yl}methyl)-1H-pyrazol-5-ol] | – | 40.4 | – | 99.0 | – | – | – | – | – | – | – | No Interaction | – |
| Oc1c(CCc2ccc(F)cc2)c(CC2CCN(Cc3cccnc3)CC2)nn1-c1nc2ccccc2[nH]1 [Compound I-808, 1-(1H-1,3-benzodiazol-2-yl)-4-[2-(4-fluorophenyl)ethyl]-3-({1-[(pyridin-3-yl)methyl]piperidin-4-yl}methyl)-1H-pyrazol-5-ol] | – | 12.8 | – | 102.6 | – | – | – | – | – | – | – | No Interaction | – |
| Oc1c(CCc2ccc(F)cc2)c(CC2CCN(Cc3ccncc3)CC2)nn1-c1nc2ccccc2[nH]1 [Compound I-809, 1-(1H-1,3-benzodiazol-2-yl)-4-[2-(4-fluorophenyl)ethyl]-3-({1-[(pyridin-4-yl)methyl]piperidin-4-yl}methyl)-1H-pyrazol-5-ol] | – | 14.1 | – | 97.9 | 2740 | – | – | – | – | – | – | – | – |
| Oc1c(CCc2ccc(F)cc2)c(CNCc2ccncc2)nn1-c1nc2ccccc2[nH]1 [Compound I-810, 1-(1H-1,3-benzodiazol-2-yl)-4-[2-(4-fluorophenyl)ethyl]-3-({[(pyridin-4-yl)methyl]amino}methyl)-1H-pyrazol-5-ol] | 42.8 | 42.8 | 100 | 101.3 | 70.7 | 3580 | 3580 | 5.97E + 00 minutes | 3.75E- 03 | – | – | – | 3190 |
| Oc1c(CCc2ccc(F)cc2)c(CNCc2cccnc2)nn1-c1nc2ccccc2[nH]1 [Compound I-811, 1-(1H-1,3-benzodiazol-2-yl)-4-[2-(4-fluorophenyl)ethyl]-3-({[(pyridin-3-yl)methyl]amino}methyl)-1H-pyrazol-5-ol] | 8.3 | 8.3 | 100 | 100.7 | 559 | 12600 | 12600 | 3.83E- 01 minutes | 3.57E- 03 | – | – | – | 2380 |
| Oc1c(CCC2CCN(c3ncc(F)cn3)CC2)c(C2CC2)nn1-c1nc2cc(Cl)ccc2[nH]1 [Compound I-901, 1-(5-chloro-1H-1,3-benzodiazol-2-yl)-3-cyclopropyl-4-{2-[1-(5-fluoropyrimidin-2-yl)piperidin-4-yl]ethyl}-1H-pyrazol-5-ol] | 14.3 | 14.3 | 100 | 105.0 | 481 | 0.0153 | 0.0153 | 2.46E + 05 minutes | 2.23E- 03 | – | – | – | – |
| COc1cc(N2CCC(CCc3c(C4CC4)nn(-c4nc5cc(Cl)ccc5[nH]4)c3O)CC2)nc(OC)n1 [Compound I-902, 1-(5-chloro-1H-1,3-benzodiazol-2-yl)-3-cyclopropyl-4-{2-[1-(2,6-dimethoxypyrimidin-4-yl)piperidin-4-yl]ethyl}-1H-pyrazol-5-ol] | 13.8 | 13.8 | 100 | 106.5 | 6.58 | 0.00367 | 0.00367 | 1.46E + 06 minutes | 7.18E- 03 | – | – | – | – |
| Oc1c(CCc2ccc(F)cc2)c(C2CCCN(CC(F)(F)F)C2)nn1-c1nc2ccccc2[nH]1 (centres unmarked) [Compound I-1002, 1-(1H-1,3-benzodiazol-2-yl)-4-[2-(4-fluorophenyl)ethyl]-3-[1-(2,2,2-trifluoroethyl)piperidin-3-yl]-1H-pyrazol-5-ol] | – | 22.7 | – | 96.4 | – | – | – | – | – | – | – | – | 1710 |

— patent publication US20220380341A1, “INHIBITORS OF HIV-1 NEF FOR THE TREATMENT OF HIV DISEASE” (priority 2018, published 2022)
